Experimental data published in patent US8822484B2, “Fused thiazolo and oxazolo pyrimidinones” (Torrent Pharmaceuticals Limited, priority 2009, dated 2014).

Assays:
Type in all cases: cell-based
erythropoietin = assay: In vitro erythropoietin induction (ELISA of culture supernatant); conditions: Hep3B cell line, relative to vehicle control; for EPO fold induction: 16 hours
Procedure: Hep3B cell line (ATCC HB8064) was employed. Induction of erythropoietin was carried out for the indicated dose of compounds for 16 hours duration. At the end of 16 hours, cell culture medium was collected and centrifuged to remove any debris. Supernatant obtained was analyzed for erythropoietin by ELISA (R&D systems, USA). The results were expressed as fold induction as compared to vehicle control.

adrenomedullin mRNA = assay: In vitro induction of adrenomedullin (mRNA, real-time PCR); conditions: Hep3B cell line, 200 uM, 6 hours, normalized to 18S rRNA, relative to vehicle control
Procedure: Hep3B cell line (ATCC HB8064) was employed. […] At the end of 6 hours, cells were lysed and total RNA was isolated. Expression of adrenomedullin mRNA along-with expression of 18S rRNA was monitored by real-time PCR. Adrenomedullin mRNA expression was normalized relative to the expression of 18S rRNA. The results were expressed as fold induction of adrenomedullin mRNA relative to vehicle treated control.

VEGF = assay: In vitro induction of vascular endothelial growth factor (ELISA of culture supernatant); conditions: Hep3B cell line, 200 uM, 16 hours, relative to vehicle control
Procedure: Hep3B cell line (ATCC HB8064) was employed. […] Supernatant obtained was analyzed for VEGF by ELISA (R&D systems, USA).

SMILES | EPO fold induction (erythropoietin; 200 uM) | other results
CC(C)[C@H](NC(=O)c1c(O)nc2sc3c(n2c1=O)CCC(C)(C)C3)C(=O)O (single isomer, unassigned) [Compound 43, 2-[(2-Hydroxy-7,7-dimethyl-4-oxo-5,6,7,8-tetrahydro-4H-9-thia-1,4a-diaza-fluorene-3-carbonyl)-amino]-3-methyl-butyric acid (L-isomer)] | + (<2 fold) | 
C[C@@H](NC(=O)c1c(O)nc2sc3c(n2c1=O)CCC(C)(C)C3)C(=O)O (single isomer, unassigned) [Compound 44, 2-[(2-Hydroxy-7,7-dimethyl-4-oxo-5,6,7,8-tetrahydro-4H-9-thia-1,4a-diaza-fluorene-3-carbonyl)-amino]-propionic acid (D-isomer)] | + (<2 fold) | 
CC1(C)CCc2c(sc3nc(O)c(C(=O)N[C@H](C(=O)O)c4ccccc4)c(=O)n23)C1 (single isomer, unassigned) [Compound 55, [(2-Hydroxy-7,7-dimethyl-4-oxo-5,6,7,8-tetrahydro-4H-9-thia-1,4a-diaza-fluorene-3-carbonyl)-amino]-phenyl-acetic acid, L-isomer] | + (<2 fold) | 
O=C(O)CNC(=O)c1c(O)nc2sc3c(n2c1=O)CCC3 [Compound 11, [(2-Hydroxy-4-oxo-7,8-dihydro-4H,6H-cyclopenta[4,5]thiazolo[3,2-a]pyrimidine-3-carbonyl)-amino]-acetic acid] | +++ (5-8 fold) | 
O=C(O)CCNC(=O)c1c(O)nc2sc3c(n2c1=O)CCC3 [Compound 14, 3-[(2-Hydroxy-4-oxo-7,8-dihydro-4H,6H-cyclopenta[4,5]thiazolo[3,2-a]pyrimidine-3-carbonyl)-amino]-propionic acid] | ++ (2-4 fold) | 
COc1cc(OC)cc(C(=O)N2CCc3c(sc4nc(O)c(C(=O)NCC(=O)O)c(=O)n34)C2)c1 [Compound 41, {[7-(3,5-Dimethoxy-benzoyl)-2-hydroxy-4-oxo-5,6,7,8-tetrahydro-4H-9-thia-1,4a,7-triaza-fluorene-3-carbonyl]-amino}-acetic acid] |  | fold induction at 200 µM (erythropoietin; Homo sapiens, Hep3B, 16 h, 200 uM, read-out: EPO fold induction): 2 to 4
CC1(C)CCc2c(sc3nc(O)c(C(=O)NCC(=O)[O-])c(=O)n23)C1.CC1(C)CCc2c(sc3nc(O)c(C(=O)NCC(=O)[O-])c(=O)n23)C1.[Na+].[Na+] [Compound 80, [(2-Hydroxy-7,7-dimethyl-4-oxo-5,6,7,8-tetrahydro-4H-9-thia-1,4a-diaza-fluorene-3-carbonyl)-amino]-acetic acid, Disodium salt] | ++++ (9-16 fold) | 
O=C([O-])CNC(=O)c1c(O)nc2sc3c(n2c1=O)CCCCC3.O=C([O-])CNC(=O)c1c(O)nc2sc3c(n2c1=O)CCCCC3.[Na+].[Na+] [Compound 82, [(2-Hydroxy-4-oxo-6,7,8,9-tetrahydro-4H,5H-10-thia-1,4a-diaza-benzo[a]azulene-3-carbonyl)-amino]-acetic acid, Disodium salt] |  | EPO fold induction (erythropoietin; 50 uM): ++++ (9-16 fold); Adrenomedullin mRNA (fold induction) (adrenomedullin mRNA): +++ (5-8 fold); VEGF (Fold induction) (VEGF): ++ (2-4 fold induction of VEGF)
